Key:
Homo sapiens = organism: Homo sapiens; assay: Inhibition of recombinant biotin-labelled HSP90/GST-labelled PPID interaction (unknown origin) at 500 uM by Alphascreen assay relative to control
Heat shock protein HSP90 [1] = target: T1, Heat shock protein HSP90 (Homo sapiens, UniProt P07900+P08238); assay: Binding affinity to recombinant human N-terminal GST-tagged HSP90-CTD assessed as induction of fluorescence quenching at 1 mM by fluorescence spectroscopic analysis relative to control; assay type: protein assay
Heat shock protein HSP90 [2] = target: T1, Heat shock protein HSP90; assay: Binding affinity to recombinant human N-terminal GST-tagged HSP90-CTD by fluorescence spectroscopic analysis; assay type: protein assay
[3] = Binding affinity to GST (unknown origin) by fluorescence spectroscopic analysis; assay type: ADME, Homo sapiens
[4] = Inhibition of recombinant biotin-labelled HSP90/GST-labelled PPID interaction (unknown origin) by Alphascreen assay; set-up: species or system Homo sapiens

Row | Compound | inhibition (Homo sapiens) [%] | Activity (Heat shock protein HSP90 [1]) [%] | also measured
1 | Cc1cc2oc(=O)cc(C)c2cc1NC(=O)CCCCl | > 60 |  | 
2 | NC(Cc1c[nH]c2ccc(OCc3ccccc3)cc12)C(=O)O (centres undefined) | > 60 | > 30 | Kd (Heat shock protein HSP90 [2]): 28 µM; Kd [3]: 83 µM; IC50 [4]: 220 µM
3 | CCCCC(NC/C(=C(/C)O)c1cc2c(c(=O)o1)CCCC2)C(=O)O (centres undefined) | > 60 |  | 
4 | COc1ccc2[nH]c3c(c2c1)CCNC3c1cccc(O)c1 (centres undefined) | > 60 |  | 
5 | CC(C)CCn1c(NCCO)nc2c1c(=O)[nH]c(=O)n2C |  | > 30 | 

Second part, led by results:

Row | inhibition (Homo sapiens) [%] | Activity (Heat shock protein HSP90 [1]) [%] | Compound | also measured
6 |  | > 30 | COc1ccc(C(=O)Nc2ccccc2C(=O)NCCC(=O)O)cc1 | 
7 | > 60 |  | Cc1cc(O)c2c(=O)c(-c3csc(C)n3)coc2c1 | 
8 | > 60 |  | O=C(O)C1Cc2c([nH]c3ccccc23)C(c2c(O)ccc3ccccc23)N1 (centres undefined) | 
9 |  | > 30 | CCOC(=O)c1cnc2ccc(OC)cc2c1Nc1ccccc1C(=O)O | 
10 |  | > 30 | COc1ccc(C(=O)Nc2ccccc2C(=O)N[C@H](C(=O)O)C(C)C)cc1 | 
11 | > 60 | > 30 | Cc1nc(CC(=O)c2ccc(O)c(O)c2O)cs1 | Kd (Heat shock protein HSP90 [2]): 102 µM; Kd [3]: 310 µM; IC50 [4]: 35 µM

Source: ChEMBL document CHEMBL4732222, “Discovery of novel Hsp90 C-terminal domain inhibitors that disrupt co-chaperone binding” (Bioorg Med Chem Lett, 2021)
